Experimental findings from patent US7687079B2, “Methods of treating ileus” (priority 2002, dated 2010) are described below.

In series [1] the test system is small intestinal circular muscle. Description: in vitro circular muscle contractility (spontaneous and bethanechol-stimulated) after SITx. It counts as in vivo, rat. As for the experimental part: To determine whether CO is protective against ileus associated with small bowel transplantation, orthotopic SITx was performed in syngenic Lewis rats. SITx with caval drainage was performed using a previously described procedure. […] The graft was perfused via the aortic segment with 5 ml chilled Ringer's lactate solution, and the intestinal lumen was irrigated with 20 ml of cold saline solution containing 0.5% neomycin-sulfate (Sigma, St. Louis, Mo.). End-to-side anastomoses between the graft aorta and the recipient infrarenal aorta, and between the graft portal vein and recipient vena cava, were performed with 10-0 Novafil™ suture. The cold ischemic time was 1 hour. The entire recipient intestine was removed and the enteric continuity was restored by proximal and distal end-to-end intestinal anastomoses. Recipient animals were given 20 mg/day prophylactic cefamandole nafate for 3 postoperative days. Transplanted recipients were given water 3 hours after surgery, and were fed 24 hours after surgery.
Four groups of animals were examined in this study, two of which received a SITx. Group 1 consisted of unoperated normal rats. Group 2 animals were exposed to CO with no surgery. In Group 3, syngeneic SITx were performed and the recipients kept in room air. Group 4 consisted of SITx recipients that were placed in the CO chamber for 1 hour before surgery and then re-exposed to CO immediately following surgery until sacrificed. In both Groups 3 and 4, normal LEW rats served as donors.
The animals were exposed to CO at a concentration of 250 ppm. Briefly, 1% CO in air was mixed with air (21% oxygen) in a stainless steel mixing cylinder and then directed into a 3.70 ft^3 glass exposure chamber at a flow rate of 12 L/min. A CO analyzer (Interscan, Chatsworth, Calif.) was used to measure CO levels continuously in the chamber. CO concentrations were maintained at 250 ppm at all times. The animals were supplied food and water during the exposures.
The effect of CO treatment on intestinal dysmotility in transplanted grafts was assessed both in vitro and in vivo. […] In vitro circular muscle mechanical activity was measured as previously described (Eskandari et al., Am. J. Physiol. 273(3 Pt 1):G727-34 (1997)). Rats were anesthetized and killed by exsanguination 24 hours post-operatively. A segment of mid-jejunum was pinned in a Sylgaard™ lined dissecting dish containing pre-oxygenated Krebs-Ringer-bicarbonate buffer (KRB; in mM: 137.4 Na^+, 5.9 K^+, 2.5 Ca^2+, 1.2 Mg^2+, 134 Cl^−, 15.5 HCO3^−, 1.2 H2PO4^−, and 11.5 glucose) that was equilibrated with 97% O2/3% CO2. The intestine was opened along the mesenteric border and the mucosa removed by stripping with fine forceps. Full-thickness strips of muscularis (1×6 mm) were cut parallel to the circular muscle layer. Muscle strips were mounted in standard horizontal mechanical organ chambers that were continuously superfused with pre-oxygenated KRB maintained at 37° C. One end of each strip was attached by ligature to a fixed post and the other to an isometric force transducer (WPI, Sarasota, Fla.). Strips were allowed to equilibrate for 1 hour, after which they were incrementally stretched to the length at which maximal spontaneous contraction occurred (Lo). […] Contractile activity was calculated by integrating the area under the trace, normalized by converting the weight and length of the strip to square millimeters of tissue (1.03 mg/mm^2), and reported as g/s/mm^2.

Series [2] can be described thus: general observations after intestinal manipulation and CO exposure. It counts as in vivo, mouse. Particulars: mice, CO 250 ppm, 1 hour before and 24 hours after laparotomy. From the text:
Surgical Manipulation. Mice were anesthetized with inhaled isoflurane and the abdomen opened by midline laparotomy. The small intestine was eventrated and gently compressed along its entire length using moistened sterile cotton applicators. This procedure is designed to simulate “running” of the bowel commonly performed during abdominal surgery in the clinical setting. The bowel was repositioned in the abdominal cavity and the incision closed by two layers of continuous sutures. The duration of the procedure was approximately 15 minutes and the animals moved freely about their cage within 20 minutes of withdrawal of anesthetic.
CO Inhalation Treatment. Mice housed in cages were placed in plexiglass chambers that were continuously ventilated with air or with air containing CO (250 ppm). A sampling port was provided to continuously monitor carbon monoxide concentrations within the chamber. Animals had free access to food and water at all times. Mice were exposed to CO or air 1 hour prior to laparotomy, removed for surgical manipulation, and then returned to the chamber for 24 hours. Mice not undergoing surgery were removed from the chamber for a similar length of time and then returned to the chamber for 24 hours.

Each structure is given as a SMILES string.

On to `[C-]#[O+]` [CO, carbon monoxide], for which the peak contractile force worked out at 3.6±0.7 g/mm^2/s in series [1] (SITx + CO 250 ppm, 100 μM bethanechol) and 3.2±0.5 g/mm^2/s in series [1] (unoperated animals treated with CO 250 ppm, bethanechol). The Contractile force in series [1] (SITx + CO, Table 2) stood at 3.0 ± 0.4 g/s/mm^2. Moreover, the spontaneous contractile activity entry was “restored” in series [1] (transplanted (SITx) rats, CO 250 ppm, 24 hours after reperfusion) and “no effect” in series [1] (unoperated control rats, CO 250 ppm for 24 hours). For the same compound, in series [2], the “mortality or morbidity associated with the CO exposure regime” value was “No mortality or morbidity”.
